According to US5036071A, “Derivatives of purine” (Medivir AB, priority 1984, dated 1991):

Experiments:
HSV-2 strain 91075 = experiment: Treatment of a systemic HSV-2 infection in mice (mortality); format: in vivo; details: oral; for Mortality (%) day 6 / Mortality (%) day 9 / Mortality (%) day 12 / Mortality (%) day 15: twice daily for ten days; for Mortality (%) day 6: day 6 post infection; for Mortality (%) day 9: day 9 post infection; for Mortality (%) day 12: day 12 post infection; for Mortality (%) day 15: day 15 post infection
Procedure: In the following the compound (R)-(+)-9-(3,4-dihydroxybutyl)guanine is denoted VIS 743, the compound (R)-2-amino-9-(3,4-dihydroxybutyl)purine is denoted VSA 305 and Herpes simplex type 2 virus is denoted HSV-2. Mice infected systemically with HSV-2 strain 91075 (10^4 pfu infected i.p.) were treated orally with VIS 743 or VSA 305 twice daily for ten days. Treatment started 1 hour post infection. Mortality was determined on several days post infection.

[1] = Plasma concentration of VIS 743 in mice after giving VIS 743 or VSA 305 orally; format: in vivo; details: 15 mg/kg p.o.
Procedure: Mice were given VIS 743 or VSA 305 p.o. Each compound was given in a dosage of 15 mg/kg. The plasma concentrations of VIS 743 were determined by analysis on HPLC, 30, 60, 90 and 120 min after dosage. Each concentration was determined as an average of results from two mice.

biological transformation to VIS 743 [1]	SMILES	Mortality (%) day 6 (HSV-2 strain 91075; 15 mg/kg)	Mortality (%) day 9 (HSV-2 strain 91075; 15 mg/kg)	Mortality (%) day 12 (HSV-2 strain 91075; 15 mg/kg)	Mortality (%) day 15 (HSV-2 strain 91075; 15 mg/kg)	Mortality (%) day 6 (HSV-2 strain 91075; 30 mg/kg)	Mortality (%) day 9 (HSV-2 strain 91075; 30 mg/kg)	Mortality (%) day 12 (HSV-2 strain 91075; 30 mg/kg)	Mortality (%) day 15 (HSV-2 strain 91075; 30 mg/kg)	effect of a low dose (15 mg/kg) compared with a high dose of VIS 743 (30 mg/kg) (HSV-2 strain 91075; VSA 305 15 mg/kg vs VIS 743 30 mg/kg)
	Nc1nc2c(ncn2CC[C@@H](O)CO)c(=O)[nH]1 [VIS 743, (R)-(+)-9-(3,4-dihydroxybutyl)guanine]	40%	80%	100%	100%	0%	28%	45%	53%	
biologically transformed to VIS 743	Nc1ncc2ncn(CC[C@@H](O)CO)c2n1 [VSA 305, (R)-2-amino-9-(3,4-dihydroxybutyl)purine]	0%	45%	50%	53%					comparable
